Experimental findings from BindingDB's records for doi:10.3109/14756366.2011.643302 (Centre de Recherche de Gif, 2013) are described below.

The target in assay [1] is T1, Protein farnesyltransferase subunit beta/geranylgeranyltransferase type-1 subunit alpha (Saccharomyces cerevisiae (strain ATCC 204508 / S288c), UniProt P22007+P29703).
T1 sequence (P22007 whole entry): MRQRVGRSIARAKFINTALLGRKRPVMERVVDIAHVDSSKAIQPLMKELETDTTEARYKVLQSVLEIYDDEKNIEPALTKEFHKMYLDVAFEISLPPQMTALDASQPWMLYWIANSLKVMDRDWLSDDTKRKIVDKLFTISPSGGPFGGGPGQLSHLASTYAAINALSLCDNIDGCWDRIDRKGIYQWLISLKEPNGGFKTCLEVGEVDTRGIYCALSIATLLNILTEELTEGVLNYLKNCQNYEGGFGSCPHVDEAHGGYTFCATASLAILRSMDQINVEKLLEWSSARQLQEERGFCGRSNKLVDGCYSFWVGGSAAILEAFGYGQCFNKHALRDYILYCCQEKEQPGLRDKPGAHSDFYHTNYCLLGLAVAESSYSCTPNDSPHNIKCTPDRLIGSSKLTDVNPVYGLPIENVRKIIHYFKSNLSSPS
T1 sequence (P29703 whole entry): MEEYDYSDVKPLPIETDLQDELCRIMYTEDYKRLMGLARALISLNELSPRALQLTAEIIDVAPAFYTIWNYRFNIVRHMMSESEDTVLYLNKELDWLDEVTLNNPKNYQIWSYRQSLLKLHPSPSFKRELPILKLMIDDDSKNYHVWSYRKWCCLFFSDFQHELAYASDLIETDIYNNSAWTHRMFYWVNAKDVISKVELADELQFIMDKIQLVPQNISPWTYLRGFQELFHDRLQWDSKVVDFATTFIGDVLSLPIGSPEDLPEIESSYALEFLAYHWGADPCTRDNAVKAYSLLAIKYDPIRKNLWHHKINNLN
Description: Yeast FTase Assay. The following applies: pH 7.5. The protocol:
Assays were realized on 96-well plates, prepared with Biomek NKMC and Biomek 3000 from Beckman Coulter and read on Wallac Victor fluorimeter from Perkin-Elmer. Per well, 20 μL of farnesyl pyrophosphate (10 μM) was added to 180 μL of a solution containing 2 μL of varied concentrations of potential inhibitors (dissolved in DMSO) and 178 μL of a solution composed by 0.1 mL of partially purified recombinant yeast FTase (2.2 mg/ mL) and 7.0 mL of dansyl-GCVLS peptide (in the following buffer: 5.8 mM DTT, 6 mM MgCl2, 12 μM ZnCl2 and 0.09% (w/v) CHAPS, 53 mM Tris/HCl, pH 7.5). Then the fluorescence development was recorded for 15 min(0.7 second per well, 20 repeats) at 30°C with an excitation filter at 340 nm and an emission filter at 486 nm. Each measurement was realized twice as duplicate ortriplicate.

Assay [2] deals with Protein farnesyltransferase subunit beta/geranylgeranyltransferase type-1 subunit alpha (Homo sapiens, UniProt P49354+P49356). The experiment in a line: Human FTase Assay.
Description: Assays were realized on 96-well plates, as described for yeast FTase but octyl-D-glucopyranoside (0.18%) was used instead of CHAPS and the solution contains 5 μLof partially purified human FTase (1.5 mg/mL)7 in 1 mL peptide solution.
Assay [3] concerns the target T2, Protein farnesyltransferase alpha subunit/subunit beta (Trypanosoma brucei brucei, UniProt Q9NC76+Q9NC77).
T2 sequence (Q9NC77 whole entry): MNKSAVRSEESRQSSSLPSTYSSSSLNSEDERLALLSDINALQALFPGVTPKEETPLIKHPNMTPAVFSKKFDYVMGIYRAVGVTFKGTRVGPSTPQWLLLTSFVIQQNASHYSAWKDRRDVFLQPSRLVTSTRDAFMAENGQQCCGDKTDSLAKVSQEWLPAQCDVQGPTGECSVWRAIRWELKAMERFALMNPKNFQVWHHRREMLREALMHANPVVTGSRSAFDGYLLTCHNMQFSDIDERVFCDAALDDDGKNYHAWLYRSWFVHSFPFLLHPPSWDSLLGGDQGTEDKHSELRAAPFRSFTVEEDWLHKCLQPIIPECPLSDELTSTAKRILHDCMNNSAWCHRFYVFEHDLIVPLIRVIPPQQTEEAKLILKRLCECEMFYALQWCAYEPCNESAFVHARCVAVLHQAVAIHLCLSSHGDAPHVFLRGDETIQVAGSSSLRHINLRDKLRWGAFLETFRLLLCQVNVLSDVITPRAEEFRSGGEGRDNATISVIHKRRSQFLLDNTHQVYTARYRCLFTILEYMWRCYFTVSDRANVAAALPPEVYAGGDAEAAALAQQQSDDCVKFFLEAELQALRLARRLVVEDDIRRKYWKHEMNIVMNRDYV
T2 sequence (Q9NC76 whole entry): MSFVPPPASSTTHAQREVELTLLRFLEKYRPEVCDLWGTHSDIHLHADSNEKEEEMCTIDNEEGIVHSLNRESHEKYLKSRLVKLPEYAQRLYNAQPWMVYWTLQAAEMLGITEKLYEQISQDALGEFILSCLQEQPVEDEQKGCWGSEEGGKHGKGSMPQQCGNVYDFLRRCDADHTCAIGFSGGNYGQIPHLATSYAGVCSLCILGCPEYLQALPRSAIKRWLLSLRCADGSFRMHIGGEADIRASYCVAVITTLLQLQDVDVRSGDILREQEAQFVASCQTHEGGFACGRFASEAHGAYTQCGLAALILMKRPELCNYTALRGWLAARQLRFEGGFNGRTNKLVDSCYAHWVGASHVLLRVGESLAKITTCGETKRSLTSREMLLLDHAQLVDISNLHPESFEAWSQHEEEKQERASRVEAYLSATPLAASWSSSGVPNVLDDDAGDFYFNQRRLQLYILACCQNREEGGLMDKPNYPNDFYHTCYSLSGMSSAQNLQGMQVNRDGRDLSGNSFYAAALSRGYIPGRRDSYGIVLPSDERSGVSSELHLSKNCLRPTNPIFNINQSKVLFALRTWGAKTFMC
The experiment in a line: T. brucei FTase Assay. The procedure:
Assays were realized on 96-well plates, as described for human FTase with the dansylated peptide Dansyl-GCAIM and the solution contains 15 μL of partially purified Tb-FTase (1.0 mg/mL) in 1 mL peptide solution.

For orientation: IC50 means the concentration that inhibits the measured activity by half. Lower therefore signals greater potency in that assay. `CC(C)Sc1sc(C(=O)O)c(-c2cccc(Cl)c2)c1C#N` [3-(3-Chlorophenyl)-4-cyano-5-(isopropylthio)thiophene-2-carboxylic acid (1b)]: the IC50 in assay [1] is 1.3 µM; in assay [2] it was 48 µM; in assay [3] it was 14.5 µM.
